Test results: patent US20060069132A1, “Azolecarboxamide herbicides” (priority 2004, published 2006)
Read-outs that look alike come from different tables or passages of the source.

Key:
[1] = tested on: ducksalad; test: Test C flooded paddy test; assay type: in vivo, Heteranthera limosa; settings: Heteranthera limosa
[2] = tested on: eastern black nightshade; test: Test C pre-/postemergence herbicide test; assay type: in vivo, Solanum ptycanthum
Outline: (§1)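 Emerged plants at the 1- to 4-leaf stage (2–18 cm), or freshly planted seeds, received test chemicals in a non-phytotoxic solvent mixture with surfactant. Response was visually scored against controls after 12 to 14 days in the greenhouse, on a 0 (no effect) to 100 (complete control) scale.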

[3] = tested on: barnyardgrass; test: Test A pre-/postemergence herbicide test; assay type: in vivo, Echinochloa crus-galli; settings: Echinochloa crus-galli, 240 h; for pest or weed control at 500 g/ha: 500 g ai/ha; for pest or weed control at 2000 g/ha: 2000 g ai/ha
Outline: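 Both application timings were run together: directed soil spray over freshly planted seeds in sandy loam, and runoff spray onto 2–10 cm seedlings. Evaluation after ~10 days in greenhouse used a 0–100 visual scale versus untreated controls.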

[4] = tested on: large crabgrass; test: Test C pre-/postemergence herbicide test; assay type: in vivo, Digitaria sanguinalis
Outline: as §1

[5] = tested on: rice; test: Test C flooded paddy test; assay type: in vivo, Oryza sativa; settings: Oryza sativa
Outline: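 Plants were grown to the 1- to 4-leaf stage (2–18 cm) and then treated postemergence, or grown to the 2-leaf stage for the flooded paddy test. They were held in a greenhouse for 12 to 14 days and then scored by eye against controls, where 0 is no effect and 100 is complete control.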

[6] = tested on: pigweed; test: Test C pre-/postemergence herbicide test; assay type: in vivo, Amaranthus retroflexus
Outline: as §1

[7] = tested on: rice; test: Test B pre-/postemergence herbicide test; assay type: in vivo, Oryza sativa; settings: Preemergence, 500 g ai/ha; scale 0 to 100
Outline: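 Seeds were planted and treated preemergence with compounds formulated in a non-phytotoxic solvent mixture containing surfactant, while plants at the 1- to 4-leaf stage (2 to 18 cm) received postemergence sprays. Flooded paddy plants were grown to the 2-leaf stage. After 13 to 15 days in a greenhouse, injury was visually rated 0–100 against untreated controls.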

[8] = tested on: Surinam grass; test: Test C pre-/postemergence herbicide test; assay type: in vivo, Urochloa decumbens
Outline: as §1

[9] = tested on: common ragweed; test: Test C pre-/postemergence herbicide test; assay type: in vivo, Ambrosia elatior
Outline: as §1

[10] = Preemergence, 500 g ai/ha, scale 0 to 100, 0 no effect, 100 complete control
[11] = post-emergence, Postemergence, 0 to 100 scale, 0 no effect, 100 complete control, read-out: Plant response rating, Barnyardgrass

`CCNC(=O)c1ccc(F)c(NC(=O)c2cc(C(C)(C)C)nn2CC)c1` [Compound 2, 3-(1,1-dimethylethyl)-1-ethyl-N-[5-[(ethylamino)carbonyl]-2-fluorophenyl]-1H-pyrazole-5-carboxamide] showed a pest or weed control at 62 g/ha ([1]; 62 g ai/ha, scale 0 to 100 (0 no effect, 100 complete control), read-out: Ducksalad plant response rating) of 80%, a pest or weed control at 125 g/ha ([1]; 125 g ai/ha, scale of 0 to 100, 0 is no effect, 100 is complete control, read-out: Ducksalad plant response rating) of 80% and a pest or weed control at 250 g/ha ([1]; 250 g ai/ha, visual rating after 12 to 14 days, scale 0 to 100 (0 no effect, 100 complete control), read-out: Plant response rating, Ducksalad) of 85%. For the same compound, the pest or weed control at 500 g/ha ([1]; 500 g ai/ha, visual rating after 12 to 14 days, scale 0 to 100 (0 no effect, 100 complete control), read-out: Plant response rating, Ducksalad) was 95%, the “Plant response rating (0 = no effect, 100 = complete control), Nightshade” value ([2]; 62 g ai/ha, preemergence) was 100 and the “Nightshade plant response rating” value [2, 10] was 100. It also gave a pest or weed control at 250 g/ha ([2]; pre-emergence, 250 g ai/ha, scale 0 to 100 (0 no effect, 100 complete control), visual, 12 to 14 days, read-out: Plant response rating, Nightshade) of 100%, a pest or weed control at 500 g/ha [3, 11] of 100% and a pest or weed control at 2000 g/ha [3, 11] of 100%. For the same compound, the pest or weed control at 500 g/ha ([3]; pre-emergence, Preemergence, visual rating, 0 to 100 scale (0 no effect, 100 complete control), read-out: Barnyardgrass plant response rating) was 100%, the pest or weed control at 2000 g/ha ([3]; pre-emergence, Preemergence, 0 to 100 scale, 0 no effect, 100 complete control, read-out: Barnyardgrass plant response rating) was 100% and the “Plant response rating (0 = no effect, 100 = complete control), Crabgrass, Large” value ([4]; 62 g ai/ha, preemergence) was 95. The pest or weed control at 125 g/ha ([4]; Digitaria sanguinalis, pre-emergence, 312 h, 125 g ai/ha, scale 0-100, read-out: Plant response rating, Crabgrass, Large) was 95%, the pest or weed control at 250 g/ha ([4]; Digitaria sanguinalis, pre-emergence, 312 h, 250 g ai/ha, scale 0 to 100 (0 no effect, 100 complete control), visual, 12 to 14 days, read-out: Plant response rating, Crabgrass, Large) was 100% and the “Crabgrass, Large plant response rating” value [4, 10] was 100. It also gave a plant injury at 62 g/ha ([5]; 62 g ai/ha, scale 0 to 100 (0 no effect, 100 complete control), read-out: Rice plant response rating) of 50%, a plant injury at 125 g/ha ([5]; 125 g ai/ha, scale of 0 to 100, 0 is no effect, 100 is complete control, read-out: Rice plant response rating) of 50% and a plant injury at 250 g/ha ([5]; 250 g ai/ha, visual rating after 12 to 14 days, scale 0 to 100 (0 no effect, 100 complete control), read-out: Plant response rating, Rice) of 65%. For the same compound, the plant injury at 500 g/ha ([5]; 500 g ai/ha, visual rating after 12 to 14 days, scale 0 to 100 (0 no effect, 100 complete control), read-out: Plant response rating, Rice) was 85%, the “Plant response rating (0 = no effect, 100 = complete control), Pigweed” value ([6]; 62 g ai/ha, preemergence) was 95 and the pest or weed control at 250 g/ha ([6]; Amaranthus retroflexus, pre-emergence, 250 g ai/ha, scale 0 to 100 (0 no effect, 100 complete control), visual, 12 to 14 days, read-out: Plant response rating, Pigweed) was 95%. The “Pigweed plant response rating” value [6, 10] was 100, the “Rice plant response rating” value [7] was 90 and the “Plant response rating (0 = no effect, 100 = complete control), Surinam Grass” value ([8]; 62 g ai/ha, preemergence) was 90. The “Surinam Grass plant response rating” value [8, 10] was 100, the pest or weed control at 250 g/ha ([8]; Urochloa decumbens, pre-emergence, 312 h, 250 g ai/ha, scale 0 to 100 (0 no effect, 100 complete control), visual, 12 to 14 days, read-out: Plant response rating, Surinam Grass) was 100% and the “Plant response rating (0 = no effect, 100 = complete control), Ragweed” value ([9]; 62 g ai/ha, preemergence) was 80. The pest or weed control at 250 g/ha ([9]; Ambrosia artemisiifolia, pre-emergence, 250 g ai/ha, scale 0 to 100 (0 no effect, 100 complete control), visual, 12 to 14 days, read-out: Plant response rating, Ragweed) was 100% and the “Ragweed plant response rating” value [9, 10] was 100.
